Results published in PubChem BioAssay (NCI).
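A five-concentration, 48-hour dose response in 96-well plates underlies each endpoint, interpolated linearly between surrounding concentrations. GI50 marks 50% less growth. TGI: total growth inhibition.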

Experiments:
Assay in all cases: NCI anticancer screen, dose series, 48 h
[1] = tested on: HCT-15 colon
[2] = tested on: NCI-H460 lung
[3] = tested on: CCRF-CEM leukemia
[4] = tested on: COLO 205 colon
[5] = tested on: KM12 colon
[6] = tested on: DU-145 prostate
[7] = tested on: OVCAR-3 ovarian
[8] = tested on: OVCAR-5 ovarian
[9] = tested on: TK-10 renal
[10] = tested on: MDA-MB-231 breast

| SMILES | GI50 [1] [µM] | TGI [1] [µM] | GI50 [2] [µM] | TGI [2] [µM] | TGI [3] [µM] | GI50 [4] [µM] | TGI [4] [µM] | TGI [5] [µM] | TGI [6] [µM] | TGI [7] [µM] | TGI [8] [µM] | TGI [9] [µM] | TGI [10] [µM] |
| --- | --- | --- | --- | --- | --- | --- | --- | --- | --- | --- | --- | --- | --- |
| CN(C)S(=O)(=O)c1cccc(-c2nc3sc4c(c3c(=O)[nH]2)CCCC4)c1 | > 100 | > 100 | 0.931 | > 100 | > 100 | > 100 | > 100 |  |  |  |  |  |  |
| CCCCCCCCCCCCCCCCCCNC(=S)/N=C/c1c(O)cc(C)oc1=O |  | 62 |  | > 100 |  |  | > 100 | 36.3 | > 100 | > 100 | 37.3 | 35.9 | > 100 |
| CCOC(=O)CC(=Nc1cc(C)on1)N(CC)CC |  | > 100 |  | > 100 | > 100 |  | > 100 | > 100 |  | > 100 | > 100 | > 100 |  |
| O=C(NN1C(=O)C(Cl)C1c1ccc([N+](=O)[O-])cc1)c1ccccc1O (stereo not given) |  |  |  | > 100 | > 100 |  | > 100 | > 100 |  | > 100 | > 100 | > 100 |  |
| O=c1[nH]c2cc([N+](=O)[O-])c(N(CCO)CCO)c([N+](=O)[O-])c2[nH]1 |  | > 100 |  | 43.2 | > 100 |  | 51.8 | 93.3 | > 100 | 33.3 | > 100 |  | > 100 |
| Cc1ccc(C(=O)NC(C)C)cc1N=NN(C)C |  | > 100 |  | > 100 |  |  |  | > 100 |  | > 100 |  | > 100 |  |
| COc1ccc2c(c1)Cc1c-2[nH]c2cc3c(cc2c1=O)OCO3 |  | > 100 |  | 35 | 39.1 |  | 25.5 | 38.3 |  | 45.9 |  | 83.3 |  |
| CNC(=O)C(NC(=O)[C@H](CC(C)C)NC(=O)[C@@H](S)CCN1C(=O)N(C)C(C)(C)C1=O)C(C)(C)C (stereo not given in full) |  | > 100 |  | > 100 |  |  |  | > 100 | > 100 |  | > 100 | > 100 |  |
| CN1CCN(c2ccc3nc(-c4ccc5nc(-c6ccc(N(C)CCCl)cc6)[nH]c5c4)[nH]c3c2)CC1 |  | 26.1 |  | 5.14 | 0.647 |  | 0.341 | 2.31 | 11.4 |  | 12.4 | 9.77 | 22.3 |
| C/C(=N\Nc1ncnc2ccccc12)c1ccccn1 |  | > 56.8 |  | 21.2 |  |  | 17.9 | 22.1 | 13.7 | 12.8 | 64.6 | 18.6 |  |
| O=C(/C=C/c1ccsc1)c1ccc(Cl)s1 |  | > 100 |  | > 100 | 63.9 |  | > 100 | 35.9 | > 100 |  |  | > 100 | > 100 |
| FC(F)(F)c1nc2cc(SSc3cc4nc(C(F)(F)F)[nH]c4cc3Cl)c(Cl)cc2[nH]1 |  | > 100 |  | > 100 |  |  | > 100 |  | > 100 | > 100 | > 100 | > 100 | > 100 |
| Cc1ccc(C(=O)/C=C/N2CCN(c3cccc(C(F)(F)F)c3)CC2)cc1 |  | 29.5 |  | 47.8 |  |  | 72 | 38.1 | 38 | 28.5 | 39.1 | 56.8 | 33.4 |
